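96-well plates; 48 h exposure; 5 concentrations. Endpoints by linear interpolation between flanking doses. Not reached: highest tested concentration assigned. GI50: concentration for 50% inhibition of growth. TGI: concentration producing complete growth inhibition.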
Legend:
Test in all cases: NCI-60 cell line screen, 48 h
[1] = tested on: MCF7 breast
[2] = tested on: NCI-H226 lung
[3] = tested on: SW-620 colon
[4] = tested on: OVCAR-5 ovarian
[5] = tested on: BT-549 breast
[6] = tested on: SF-295 CNS
[7] = tested on: CAKI-1 renal
[8] = tested on: SNB-75 CNS
[9] = tested on: HCT-15 colon
[10] = tested on: SN12C renal

| Compound | GI50 [1] [µM] | TGI [1] [µM] | GI50 [2] [µM] | TGI [2] [µM] | GI50 [3] [µM] | TGI [3] [µM] | GI50 [4] [µM] | TGI [4] [µM] | GI50 [5] [µM] | TGI [5] [µM] | GI50 [6] [µM] | TGI [6] [µM] | GI50 [7] [µM] | TGI [7] [µM] | GI50 [8] [µM] | TGI [8] [µM] | GI50 [9] [µM] | TGI [9] [µM] | GI50 [10] [µM] | TGI [10] [µM] |
| --- | --- | --- | --- | --- | --- | --- | --- | --- | --- | --- | --- | --- | --- | --- | --- | --- | --- | --- | --- | --- |
| CC(C)(O)C#Cc1ccc(/C=C/C(=O)c2ccccc2)s1 | 3.63 | 16.7 | 18.8 | 42.3 | 19.5 | 40.9 | 16.5 | 32 | 16.2 | 30.8 | 17.7 | 35.5 | 16.9 | 30.6 | 13.7 | 27 | 15.7 | 30.8 | 18.1 | 32.1 |
| Oc1ccc(CN2CCC(N3CCOCC3)CC2)c2cccnc12 | 22.7 | 76.8 | 41.4 | > 100 | 60 | > 100 | 86.9 | > 100 | 31.9 | > 100 | 39.8 | > 100 | 29.2 | > 100 | 11.9 | > 100 | 36.5 | > 100 | 47.5 | > 100 |
| O=c1ccc(N=Nc2ccc([N+](=O)[O-])cc2)ccc1O | 4 | > 100 | 12.7 | > 100 | 3.45 | > 100 | 30.1 | > 100 | 8.74 | > 100 | 4.57 | > 100 | 7.79 | > 100 | 10.8 | > 100 | 3.89 | > 100 | 3.61 | > 100 |
| COc1ccc2c(c1O)C13CCN(C)C(C2)C1CCC1(C3)OCCO1 (stereo not drawn) | – | > 100 | – | > 100 | – | > 100 | – | > 100 | – | > 100 | – | > 100 | – | > 100 | – | > 100 | – | > 100 | – | > 100 |
| CCOC(=O)c1sc2ncn(Cc3cccc(Br)c3)c(=O)c2c1C | 31.4 | > 100 | 19.8 | 85 | 97.6 | > 100 | > 100 | > 100 | 28.7 | > 100 | 64.9 | > 100 | 24.6 | 97.5 | 69.2 | > 100 | 62.4 | > 100 | 11.7 | 47.3 |
| N#Cc1cccc(OCc2nc(N)nc(N)c2-c2ccc(Cl)c(Cl)c2)c1 | 3.09 | > 100 | 7.44 | > 100 | 0.484 | > 100 | 6.87 | > 100 | 3.01 | > 100 | 0.46 | 14.3 | 0.893 | > 100 | 5.67 | > 100 | 0.575 | > 100 | 2.23 | > 100 |
| Fc1ccc(-c2nn3c(-c4ccc(F)c(Cl)c4)nnc3s2)cc1 | 30.3 | > 50 | > 50 | > 50 | > 50 | > 50 | > 50 | > 50 | 33.2 | > 50 | 18.2 | > 50 | 26 | > 50 | 11.3 | 30.4 | 22.7 | > 50 | 32.3 | > 50 |
| O=c1c2c3c(sc2n2c(-c4cc(-c5ccccc5)no4)nnc2n1Cc1ccccc1)CCCC3 | 16.3 | > 76.3 | 20 | 58.3 | 31.4 | > 100 | 91.2 | > 100 | 13.7 | 63.2 | 6.53 | 31.7 | 10.2 | 61.5 | 11.2 | > 100 | 11.6 | > 83.4 | 22.7 | > 100 |
| Cc1cc(NCCCNc2ccnc3cc(Cl)ccc23)nc(N2CCN(C)CC2)n1 | 2.77 | 28.4 | 3.39 | 22 | 2.62 | 17.5 | 11.6 | 43.2 | 13.1 | 53.3 | 3.51 | 12.3 | 3.12 | 11.2 | 13 | 34.4 | 3.29 | 22.8 | 4.76 | 33.9 |
| C/C=C/C/C=C/CCC(=O)[C@H]1O[C@H]1C(N)=O | 12.6 | 26.1 | 15.1 | 40.6 | 11.9 | 27.9 | 16.8 | 31.4 | – | 25.3 | – | 34.8 | 13.4 | 36.5 | 10 | 25 | 8.45 | 24.1 | 11.5 | 25.3 |
| CCOC(=O)/C(=N\OC)C(O)C(F)(F)F (stereo not drawn) | – | > 100 | – | > 100 | – | > 100 | – | > 100 | – | > 100 | – | > 100 | – | > 100 | – | > 100 | – | > 100 | – | > 100 |
| CCN(CC)c1ccc(/C=C2/C[N+](C)(C)C/C(=C/c3ccc(N(CC)CC)cc3)C2=O)cc1 | – | 6.04 | – | 17.2 | – | 13.5 | – | 50.4 | – | 3.43 | – | > 90.6 | – | > 100 | – | 8.88 | – | > 100 | – | 16.4 |
| CC(=O)Nc1ccc(/C=C/C(=O)c2ccccc2)cc1 | 3.5 | 13.9 | 27.9 | > 100 | 4.32 | 17.1 | 18.3 | 45.3 | 20.1 | 41.2 | 14.4 | 31.7 | 3.77 | 16.2 | 18.2 | 42.2 | 7.54 | 37.4 | 12.9 | 29.5 |
| Cc1cc2cc3cc(C)c(N(C)C)cc3[n+](C)c2cc1N(C)C | 2.38 | > 100 | 5.68 | 48 | 2.92 | 18 | 11.9 | > 100 | 2.55 | 9.62 | 2.53 | 14 | 2.7 | > 100 | 3.7 | 31.4 | 4.52 | 72.8 | 3.91 | > 100 |
| COc1cc(C(=O)N2N=C(c3ccc(S(C)(=O)=O)cc3)CC2c2ccco2)cc(OC)c1OC (stereo not drawn) | 2.89 | > 100 | > 57.3 | > 100 | 3.62 | > 100 | > 80.2 | > 100 | 5.2 | > 71.7 | 3.04 | > 100 | 4.94 | > 90.8 | 2.91 | > 46 | 4.13 | > 100 | 12.3 | > 100 |
| COc1cc2c(cc1O)-c1c(cnn1-c1ccc([N+](=O)[O-])cc1)CCC2 | – | > 100 | – | 47.5 | – | 91.3 | – | 61.2 | – | 76.1 | – | 82.5 | – | 38.5 | – | > 100 | – | 30.5 | – | 14.7 |
| CCCCOc1ccc(NC(=O)n2nc(N)c3ccccc32)cc1 | 5.62 | 32.3 | 21 | > 85.2 | 19 | 37.2 | 21.9 | 68.4 | 17.6 | 37 | 23.5 | 79.3 | 29.1 | 71.9 | 29.6 | 82.4 | 16.9 | 70.4 | 23.4 | 85.9 |
| CS(=O)(=O)OCC1OC(n2ccc(NC(=O)c3ccccc3)nc2=O)CC1OS(C)(=O)=O (stereo not drawn) | – | > 100 | – | > 100 | – | > 100 | – | > 100 | – | > 100 | – | > 100 | – | > 100 | – | > 100 | – | > 100 | – | > 100 |
| COc1cc2c3c(n(CCCN(CCN)CCCn4c5c(c6cc(OC)c(OC)cc6c4=O)C(=O)c4cc6c(cc4-5)OCO6)c(=O)c2cc1OC)-c1cc2c(cc1C3=O)OCO2 | 0.376 | > 36 | 0.449 | 2.76 | 0.719 | > 70.7 | 3.78 | 18.9 | 5.08 | > 79.3 | 0.36 | 6.16 | 0.271 | 3.23 | 2.54 | > 100 | 8.43 | > 100 | 0.141 | 0.755 |
| O=c1c2ccccc2c(Br)c(Br)c2ccccc12 | 5.6 | 46.1 | 24.1 | 79.5 | 1.09 | 3.13 | 30.2 | > 100 | 19 | 34.4 | 17.1 | 36 | 1.78 | 4.39 | 19.2 | 56 | 10.7 | > 100 | 15.8 | 32.8 |
